In general, inhibition refers to the change of the read-out against control, counted positive when it falls.

The results in this text go back to ChEMBL document CHEMBL5303766, “Data for DCP probe FHT-2344” (2022).

The target in experiment [1] is Alpha-1B adrenergic receptor (Homo sapiens) (UniProt P35368). Particulars: Compound concentration 10.0 uM.
For experiment [2], the target named is 5-hydroxytryptamine receptor 1A (Homo sapiens) (UniProt P08908). As to conditions: Compound concentration 10.0 uM.
Experiment [3] addresses T1, Serine/threonine-protein kinase DCLK1 (Homo sapiens) (UniProt O15075).
T1 sequence (whole entry): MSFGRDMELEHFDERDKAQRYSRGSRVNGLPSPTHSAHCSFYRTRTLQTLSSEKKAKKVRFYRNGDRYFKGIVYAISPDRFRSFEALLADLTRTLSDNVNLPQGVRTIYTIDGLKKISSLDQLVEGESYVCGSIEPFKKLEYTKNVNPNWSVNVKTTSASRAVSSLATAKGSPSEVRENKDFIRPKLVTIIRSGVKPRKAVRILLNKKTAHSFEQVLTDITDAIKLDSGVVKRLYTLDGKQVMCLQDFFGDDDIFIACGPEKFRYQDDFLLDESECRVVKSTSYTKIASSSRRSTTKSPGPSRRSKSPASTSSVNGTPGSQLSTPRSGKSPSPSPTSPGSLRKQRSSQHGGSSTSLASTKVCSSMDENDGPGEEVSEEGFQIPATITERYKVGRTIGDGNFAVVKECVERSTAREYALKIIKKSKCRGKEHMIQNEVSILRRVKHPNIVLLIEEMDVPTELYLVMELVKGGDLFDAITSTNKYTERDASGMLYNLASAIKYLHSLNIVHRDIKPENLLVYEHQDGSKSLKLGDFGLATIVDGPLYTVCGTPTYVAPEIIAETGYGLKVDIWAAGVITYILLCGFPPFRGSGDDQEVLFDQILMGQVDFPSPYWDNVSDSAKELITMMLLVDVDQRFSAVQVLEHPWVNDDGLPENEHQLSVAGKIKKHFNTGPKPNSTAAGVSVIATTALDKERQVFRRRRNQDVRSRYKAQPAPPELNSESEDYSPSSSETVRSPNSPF
The experiment in a line: DCAMKL1 SGC Tm panel (DSF). As to conditions: for ΔTm: Compound concentration 10.0 uM.

Experiment [4] has as its target Tyrosine-protein kinase ABL1 (Homo sapiens) (UniProt P00519). In words: ABL1 SGC Tm panel (DSF). Particulars: for ΔTm: Compound concentration 10.0 uM.
Experiment [5] concerns the target 5-hydroxytryptamine receptor 2C (Homo sapiens) (UniProt P28335). As to conditions: Compound concentration 10.0 uM.
Experiment [6] concerns the target 5-hydroxytryptamine receptor 7 (Homo sapiens) (UniProt P34969). Particulars: Compound concentration 10.0 uM.
The target of experiment [7] is Maternal embryonic leucine zipper kinase (Homo sapiens) (UniProt Q14680). The experiment in a line: MELK SGC Tm panel (DSF). As to conditions: for ΔTm: Compound concentration 10.0 uM.
Chain of Maternal embryonic leucine zipper kinase (Homo sapiens) (Q14680 whole entry, looked up): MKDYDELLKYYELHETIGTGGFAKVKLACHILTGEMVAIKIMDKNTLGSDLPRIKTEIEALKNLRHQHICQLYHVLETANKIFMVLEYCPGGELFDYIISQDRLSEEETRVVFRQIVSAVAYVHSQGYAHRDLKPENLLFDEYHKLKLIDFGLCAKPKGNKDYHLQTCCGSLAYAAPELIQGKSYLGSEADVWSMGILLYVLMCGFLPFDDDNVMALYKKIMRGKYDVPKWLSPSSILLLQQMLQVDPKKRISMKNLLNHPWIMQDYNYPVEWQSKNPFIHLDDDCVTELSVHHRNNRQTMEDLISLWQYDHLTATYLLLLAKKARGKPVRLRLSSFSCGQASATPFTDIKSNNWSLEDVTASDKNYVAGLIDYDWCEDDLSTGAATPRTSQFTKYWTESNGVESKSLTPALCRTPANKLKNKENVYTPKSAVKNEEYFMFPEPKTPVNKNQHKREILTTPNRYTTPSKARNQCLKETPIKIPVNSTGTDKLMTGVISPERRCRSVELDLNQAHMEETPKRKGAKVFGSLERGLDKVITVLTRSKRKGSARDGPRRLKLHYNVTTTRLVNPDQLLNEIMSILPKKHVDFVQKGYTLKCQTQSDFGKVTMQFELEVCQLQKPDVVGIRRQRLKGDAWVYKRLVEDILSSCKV
For experiment [8], the target named is D(3) dopamine receptor (Homo sapiens) (UniProt P35462). Particulars: Compound concentration 10.0 uM.
Experiment [9] concerns the target Alpha-1A adrenergic receptor (Homo sapiens) (UniProt P35348). Particulars: Compound concentration 10.0 uM.
Experiment [10] deals with T2, Cytoplasmic tyrosine-protein kinase BMX (Homo sapiens) (UniProt P51813).
T2 sequence (whole entry): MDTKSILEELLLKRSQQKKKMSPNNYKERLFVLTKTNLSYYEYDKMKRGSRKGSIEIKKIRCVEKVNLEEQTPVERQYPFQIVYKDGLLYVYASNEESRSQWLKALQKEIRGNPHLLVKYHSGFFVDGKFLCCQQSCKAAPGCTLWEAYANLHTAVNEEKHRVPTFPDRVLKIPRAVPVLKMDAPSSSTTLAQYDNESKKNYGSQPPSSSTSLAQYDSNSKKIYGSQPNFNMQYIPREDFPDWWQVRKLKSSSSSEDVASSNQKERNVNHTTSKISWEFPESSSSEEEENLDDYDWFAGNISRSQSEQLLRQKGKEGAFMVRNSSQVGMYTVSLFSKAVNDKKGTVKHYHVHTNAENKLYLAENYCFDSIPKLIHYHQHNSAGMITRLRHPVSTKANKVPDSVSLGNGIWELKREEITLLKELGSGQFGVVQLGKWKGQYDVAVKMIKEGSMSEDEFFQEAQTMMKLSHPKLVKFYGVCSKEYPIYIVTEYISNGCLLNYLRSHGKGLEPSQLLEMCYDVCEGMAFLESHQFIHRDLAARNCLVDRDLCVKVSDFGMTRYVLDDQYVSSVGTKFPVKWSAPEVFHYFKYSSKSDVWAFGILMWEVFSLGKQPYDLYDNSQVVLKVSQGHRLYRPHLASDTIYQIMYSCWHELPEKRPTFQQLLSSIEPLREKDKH
The experiment in a line: BMX SGC Tm panel (DSF). As to conditions: for ΔTm: Compound concentration 10.0 uM.

For experiment [11], the target named is Ephrin type-A receptor 4 (Homo sapiens) (UniProt P54764). The experiment in a line: EPHA4 SGC Tm panel (DSF). As to conditions: for ΔTm: Compound concentration 10.0 uM.
Chain of Ephrin type-A receptor 4 (Homo sapiens) (P54764 whole entry): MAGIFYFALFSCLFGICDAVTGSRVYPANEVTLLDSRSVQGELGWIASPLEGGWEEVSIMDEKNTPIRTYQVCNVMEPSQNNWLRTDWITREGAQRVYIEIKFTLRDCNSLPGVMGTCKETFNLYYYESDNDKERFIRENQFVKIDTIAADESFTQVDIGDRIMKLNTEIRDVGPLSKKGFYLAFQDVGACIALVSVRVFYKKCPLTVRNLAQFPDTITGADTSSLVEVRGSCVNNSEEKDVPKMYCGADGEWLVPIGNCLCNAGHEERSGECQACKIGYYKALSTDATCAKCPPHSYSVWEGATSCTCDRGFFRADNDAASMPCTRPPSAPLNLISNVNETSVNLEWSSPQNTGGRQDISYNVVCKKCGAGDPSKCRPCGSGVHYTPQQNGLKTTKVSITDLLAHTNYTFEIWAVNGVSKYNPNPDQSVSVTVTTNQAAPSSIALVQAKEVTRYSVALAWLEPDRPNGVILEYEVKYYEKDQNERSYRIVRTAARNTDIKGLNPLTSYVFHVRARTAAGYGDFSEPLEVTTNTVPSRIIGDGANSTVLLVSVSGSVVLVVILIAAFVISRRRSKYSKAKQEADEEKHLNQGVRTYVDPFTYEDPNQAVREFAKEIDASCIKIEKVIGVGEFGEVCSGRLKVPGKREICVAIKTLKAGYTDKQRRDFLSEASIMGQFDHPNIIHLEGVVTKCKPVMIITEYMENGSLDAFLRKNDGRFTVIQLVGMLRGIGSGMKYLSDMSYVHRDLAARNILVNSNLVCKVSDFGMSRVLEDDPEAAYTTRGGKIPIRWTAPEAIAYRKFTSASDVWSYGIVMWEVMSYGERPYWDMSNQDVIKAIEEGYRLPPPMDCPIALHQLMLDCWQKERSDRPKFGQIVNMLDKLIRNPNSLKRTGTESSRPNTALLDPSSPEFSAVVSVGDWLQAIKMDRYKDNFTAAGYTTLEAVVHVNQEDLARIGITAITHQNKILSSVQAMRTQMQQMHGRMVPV
Experiment [12] has as its target Sigma non-opioid intracellular receptor 1 (Homo sapiens, UniProt Q99720). Particulars: Compound concentration 10.0 uM.
For experiment [13], the target named is Fibroblast growth factor receptor 3 (Homo sapiens) (UniProt P22607). In words: FGFR3 SGC Tm panel (DSF). Particulars: for ΔTm: Compound concentration 10.0 uM.
Chain of Fibroblast growth factor receptor 3 (Homo sapiens) (P22607 23-806 limits assumed): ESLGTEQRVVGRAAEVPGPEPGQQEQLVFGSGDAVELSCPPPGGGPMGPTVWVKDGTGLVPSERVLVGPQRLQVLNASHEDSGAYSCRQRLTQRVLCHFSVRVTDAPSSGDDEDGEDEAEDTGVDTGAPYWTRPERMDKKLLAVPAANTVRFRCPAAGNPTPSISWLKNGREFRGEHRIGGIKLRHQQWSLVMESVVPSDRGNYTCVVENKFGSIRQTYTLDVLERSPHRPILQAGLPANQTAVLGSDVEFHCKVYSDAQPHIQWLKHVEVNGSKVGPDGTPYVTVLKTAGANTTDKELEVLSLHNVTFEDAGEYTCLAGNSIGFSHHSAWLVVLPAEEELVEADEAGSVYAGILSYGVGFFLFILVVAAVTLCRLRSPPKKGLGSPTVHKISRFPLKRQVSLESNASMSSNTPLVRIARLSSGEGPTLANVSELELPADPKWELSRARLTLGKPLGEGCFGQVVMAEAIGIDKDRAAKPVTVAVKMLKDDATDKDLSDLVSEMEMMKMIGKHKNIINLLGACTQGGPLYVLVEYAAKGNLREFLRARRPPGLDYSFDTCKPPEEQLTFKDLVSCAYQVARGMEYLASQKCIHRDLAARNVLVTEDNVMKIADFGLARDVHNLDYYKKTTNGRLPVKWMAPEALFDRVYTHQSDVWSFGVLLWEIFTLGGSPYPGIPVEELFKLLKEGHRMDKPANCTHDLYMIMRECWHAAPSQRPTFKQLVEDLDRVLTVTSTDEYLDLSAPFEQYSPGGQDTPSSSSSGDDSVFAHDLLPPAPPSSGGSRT
In experiment [14] the target is Serine/threonine-protein kinase PAK 4 (Homo sapiens) (UniProt O96013). In words: PAK4 SGC Tm panel (DSF). As to conditions: for ΔTm: Compound concentration 10.0 uM.
Chain of Serine/threonine-protein kinase PAK 4 (Homo sapiens) (O96013 whole entry, looked up): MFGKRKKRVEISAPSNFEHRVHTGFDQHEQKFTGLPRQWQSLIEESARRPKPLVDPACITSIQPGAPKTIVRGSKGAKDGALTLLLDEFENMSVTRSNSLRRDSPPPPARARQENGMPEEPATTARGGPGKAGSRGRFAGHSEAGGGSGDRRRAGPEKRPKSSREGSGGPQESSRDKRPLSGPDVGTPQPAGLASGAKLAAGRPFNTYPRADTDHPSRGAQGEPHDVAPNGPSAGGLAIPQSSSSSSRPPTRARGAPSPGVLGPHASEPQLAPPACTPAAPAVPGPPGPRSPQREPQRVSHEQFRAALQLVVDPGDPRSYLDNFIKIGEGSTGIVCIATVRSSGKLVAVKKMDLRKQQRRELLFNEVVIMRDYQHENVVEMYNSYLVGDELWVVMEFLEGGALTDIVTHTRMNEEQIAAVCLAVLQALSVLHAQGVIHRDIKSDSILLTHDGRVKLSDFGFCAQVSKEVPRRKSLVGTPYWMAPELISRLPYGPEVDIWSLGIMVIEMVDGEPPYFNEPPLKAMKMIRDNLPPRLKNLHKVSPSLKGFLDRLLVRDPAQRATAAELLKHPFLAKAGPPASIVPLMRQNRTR
Experiment [15] has as its target Casein kinase II subunit alpha (Homo sapiens) (UniProt P68400). In words: CSNK2A1A SGC Tm panel (DSF). Particulars: for ΔTm: Compound concentration 10.0 uM.

Chain of Casein kinase II subunit alpha (Homo sapiens) (P68400 whole entry, looked up): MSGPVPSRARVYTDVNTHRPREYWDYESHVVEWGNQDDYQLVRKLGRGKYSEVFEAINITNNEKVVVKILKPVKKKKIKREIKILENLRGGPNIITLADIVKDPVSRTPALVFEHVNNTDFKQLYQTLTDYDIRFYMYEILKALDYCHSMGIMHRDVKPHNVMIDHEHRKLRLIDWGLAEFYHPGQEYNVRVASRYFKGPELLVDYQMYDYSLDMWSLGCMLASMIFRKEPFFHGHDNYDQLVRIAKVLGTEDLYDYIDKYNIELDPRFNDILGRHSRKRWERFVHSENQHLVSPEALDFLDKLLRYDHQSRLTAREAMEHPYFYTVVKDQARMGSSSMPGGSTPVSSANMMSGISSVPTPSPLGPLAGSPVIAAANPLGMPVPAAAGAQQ
Chain of Tyrosine-protein kinase ABL1 (Homo sapiens) (P00519 whole entry): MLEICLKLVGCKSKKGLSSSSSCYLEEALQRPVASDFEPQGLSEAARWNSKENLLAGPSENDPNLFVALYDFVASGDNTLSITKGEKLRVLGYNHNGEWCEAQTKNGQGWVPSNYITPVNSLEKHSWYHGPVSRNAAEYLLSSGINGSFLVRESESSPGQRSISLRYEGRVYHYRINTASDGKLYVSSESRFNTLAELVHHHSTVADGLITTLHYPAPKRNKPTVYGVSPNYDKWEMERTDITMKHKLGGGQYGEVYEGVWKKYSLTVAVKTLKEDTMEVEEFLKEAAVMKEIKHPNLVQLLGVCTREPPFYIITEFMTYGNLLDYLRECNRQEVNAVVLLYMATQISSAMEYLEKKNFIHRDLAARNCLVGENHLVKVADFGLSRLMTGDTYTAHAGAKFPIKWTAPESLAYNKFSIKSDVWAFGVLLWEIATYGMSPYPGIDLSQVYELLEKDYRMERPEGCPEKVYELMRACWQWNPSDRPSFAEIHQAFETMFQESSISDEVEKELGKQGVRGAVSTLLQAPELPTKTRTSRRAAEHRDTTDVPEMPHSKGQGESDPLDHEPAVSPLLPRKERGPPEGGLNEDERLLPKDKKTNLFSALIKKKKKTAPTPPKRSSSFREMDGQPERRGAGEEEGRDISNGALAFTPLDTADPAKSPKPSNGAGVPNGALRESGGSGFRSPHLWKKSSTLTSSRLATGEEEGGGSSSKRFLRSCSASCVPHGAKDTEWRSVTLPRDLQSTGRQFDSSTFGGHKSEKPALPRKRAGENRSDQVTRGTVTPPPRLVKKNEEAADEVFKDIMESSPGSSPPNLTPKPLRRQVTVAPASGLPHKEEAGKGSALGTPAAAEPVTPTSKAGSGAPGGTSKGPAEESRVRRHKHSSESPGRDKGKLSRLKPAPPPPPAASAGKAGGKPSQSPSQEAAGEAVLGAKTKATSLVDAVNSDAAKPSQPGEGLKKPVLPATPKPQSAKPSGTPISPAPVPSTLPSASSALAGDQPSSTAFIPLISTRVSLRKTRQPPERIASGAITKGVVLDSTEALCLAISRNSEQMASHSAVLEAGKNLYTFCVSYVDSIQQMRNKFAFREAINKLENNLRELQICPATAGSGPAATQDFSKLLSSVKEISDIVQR
Chain of 5-hydroxytryptamine receptor 2C (Homo sapiens) (P28335 whole entry): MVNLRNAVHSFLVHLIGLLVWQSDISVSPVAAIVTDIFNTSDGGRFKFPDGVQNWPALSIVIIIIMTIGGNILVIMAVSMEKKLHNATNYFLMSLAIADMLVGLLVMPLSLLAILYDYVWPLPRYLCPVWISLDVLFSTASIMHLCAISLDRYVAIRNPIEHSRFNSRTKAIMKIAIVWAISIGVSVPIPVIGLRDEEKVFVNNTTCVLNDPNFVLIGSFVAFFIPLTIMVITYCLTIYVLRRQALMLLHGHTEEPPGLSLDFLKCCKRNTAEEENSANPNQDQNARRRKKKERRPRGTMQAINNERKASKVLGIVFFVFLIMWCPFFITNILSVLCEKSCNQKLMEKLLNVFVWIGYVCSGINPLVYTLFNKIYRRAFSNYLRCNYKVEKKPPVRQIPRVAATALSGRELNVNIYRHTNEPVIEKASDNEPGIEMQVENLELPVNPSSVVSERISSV

On to `C[C@H](NC(=O)c1cn(C2(C#N)CC2)cn1)C(=O)Nc1nc(-c2cccc(-c3ccn(C)n3)c2)cs1`, for which the inhibition was 8% in experiment [1]; 23% in experiment [2]; 18.3% in experiment [5]; 23% in experiment [6]; 28.2% in experiment [8]; 15.2% in [9]. The inhibition in experiment [12] is 83.2%. Also, the delta Tm Staurosporine positive control in experiment [3] came out at 14; in experiment [4] it was 8.26; in experiment [7], 14; in experiment [10], 7.18; in experiment [11], 6.89; in [13] it was 11.8. The results for the delta Tm Staurosporine positive control in [14] and in experiment [15] were 13.4 and 2.85, respectively. Moreover, the ΔTm was -0.00623 in [3]; 0.15 in experiment [4]; 0.116 in experiment [7]; 0.254 in experiment [10]; 1.22 in experiment [11]; 1.77 in experiment [13]. The results for the ΔTm in experiment [14] and in experiment [15] were -0.0631 and 0.0573, respectively.
`COC[C@H](NC(=O)c1ccn(S(C)(=O)=O)c1)C(=O)Nc1nc(-c2cccc(-c3ccn(C)n3)c2)cs1`: the inhibition in experiment [1] is -5.17%; in experiment [2], 29.7%; in [5] it was 14.2%; in experiment [6], 3.33%; in [8], 13%; in experiment [9] it was 12.3%. The inhibition in experiment [12] is 1.62%. The delta Tm Staurosporine positive control in [3] amounted to 14; in experiment [4], 8.26; in experiment [7], 14; in [10] it was 7.18; in experiment [11] it was 6.89; in [13] it was 11.8. The delta Tm Staurosporine positive control turned out to be 13.4 in experiment [14] and 2.85 in experiment [15]. Further, the ΔTm was 0.237 in [3]; 0.39 in experiment [4]; -0.053 in experiment [7]; 0.191 in experiment [10]; 1.06 in experiment [11]; 0.361 in [13]. In addition, the ΔTm in [14] was -0.0385; in experiment [15] it was -0.131.
